Test results taken from ChEMBL document CHEMBL4024754, “Development of Potent, Protease-Resistant Agonists of the Parathyroid Hormone Receptor with Broad β Residue Distribution” (J Med Chem, 2017).
Numbered stars: 1 amine (or outer) side, 2 acyl side, 3 side chain; on linkers, the order of the positions; unused ones are H or OH. Square brackets hold non-standard residues; d marks the D form. Peptide text beside a SMILES is read from it. * marks the point of attachment. NH(1S,2S-2-CONH2-cPent) = NC(=O)[C@H]1CCC[C@@H]1N*; β3hW = N[C@H](CC(=O)O)Cc1c[nH]c2ccccc12; ACPC(1S,2S) = N[C@H]1CCC[C@@H]1C(=O)*; X1 = O=C([C@H]1CCC[C@@H]1N[*:1])[*:2]; X2 = O=C([C@H]1CNC[C@@H]1N[*:1])[*:2]; hArg = N=C(N)NCCCC[C@H](N)C(=O)O; β3hE = N[C@@H](CCC(=O)O)CC(=O)O; β3hF = N[C@H](CC(=O)O)Cc1ccccc1; β3hK = NCCCC[C@H](N)CC(=O)O; β3hM = CSCC[C@H](N)CC(=O)O; β3hD = NC(CC(=O)O)CC(=O)O; Aib = CC(C)(N)C(=O)O

Experiments:
[1] = target: T1, Parathyroid hormone/parathyroid hormone-related peptide receptor (Homo sapiens) (UniProt Q03431); assay: Agonist activity at human PTH1 receptor expressed in human GP2.3 cells assessed as induction of cAMP after 12 to 20 mins by luciferase reporter gene assay relative to PTH(1 to 34 residues)-NH2; assay type: functional, cell-based
T1 sequence (whole entry): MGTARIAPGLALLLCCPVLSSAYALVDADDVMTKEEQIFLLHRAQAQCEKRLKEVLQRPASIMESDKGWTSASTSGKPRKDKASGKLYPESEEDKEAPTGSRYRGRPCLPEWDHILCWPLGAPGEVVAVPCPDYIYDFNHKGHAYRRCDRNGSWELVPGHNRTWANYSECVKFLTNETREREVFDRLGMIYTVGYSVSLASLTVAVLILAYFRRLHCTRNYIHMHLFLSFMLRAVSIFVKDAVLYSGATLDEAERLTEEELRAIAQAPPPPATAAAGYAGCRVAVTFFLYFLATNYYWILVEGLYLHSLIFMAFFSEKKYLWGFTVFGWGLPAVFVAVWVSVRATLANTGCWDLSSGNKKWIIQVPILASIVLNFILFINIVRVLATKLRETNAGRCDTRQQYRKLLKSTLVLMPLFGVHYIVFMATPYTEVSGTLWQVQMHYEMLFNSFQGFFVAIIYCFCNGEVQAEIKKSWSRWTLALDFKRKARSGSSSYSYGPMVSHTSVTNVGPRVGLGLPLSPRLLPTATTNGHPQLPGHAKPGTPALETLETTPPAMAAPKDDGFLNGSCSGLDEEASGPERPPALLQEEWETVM

[2] = target: T2, Parathyroid hormone/parathyroid hormone-related peptide receptor (Homo sapiens, UniProt Q03431); assay: Agonist activity at human PTH1 receptor expressed in human GP2.3 cells assessed as induction of cAMP after 12 to 20 mins by luciferase reporter gene assay; assay type: functional, cell-based; details: read-out: EC50
T2 sequence (Q03431 whole entry): T1 sequence (whole entry)

Row | Compound | fold change (FC) [1] | EC50 [2] [pM]
1 | CC[C@H](C)[C@H](NC(=O)[C@H](CCC(=O)O)NC(=O)[C@H](C)NC(=O)[C@@H](NC(=O)[C@H](C)N)C(C)C)C(=O)N[C@@H](CCC(N)=O)C(=O)N[C@@H](CC(C)C)C(=O)N[C@@H](CCSC)C(=O)N[C@@H](Cc1cnc[nH]1)C(=O)N[C@@H](CCC(N)=O)C(=O)N[C@@H](CCCCNC(=N)N)C(=O)N[C@@H](C)C(=O)N[C@@H](CCCCN)C(=O)N[C@H](CC(=O)N[C@@H](CC(C)C)C(=O)N[C@@H](CC(N)=O)C(=O)N[C@@H](CO)C(=O)N[C@@H](CCSC)CC(=O)N[C@@H](CCCNC(=N)N)C(=O)N[C@@H](CCCNC(=N)N)C(=O)N[C@H](C(=O)N[C@@H](CCC(=O)O)CC(=O)N[C@@H](Cc1c[nH]c2ccccc12)C(=O)N[C@@H](CC(C)C)C(=O)N[C@@H](CCCNC(=N)N)C(=O)N[C@@H](CCCCN)CC(=O)N[C@@H](CCCCN)C(=O)N[C@@H](CC(C)C)C(=O)N[C@@H](CCC(N)=O)C(=O)N[C@@H](CC(=O)O)CC(=O)N[C@H](C(=O)N[C@@H](Cc1cnc[nH]1)C(=O)N[C@@H](CC(N)=O)C(=O)N[C@H](CC(N)=O)Cc1ccccc1)C(C)C)C(C)C)Cc1c[nH]c2ccccc12 (H-AVAEIQLMHQ[hArg]AK[β3hW]LNS[β3hM]RRV[β3hE]WLR[β3hK]KLQ[β3hD]VHN[β3hF]-NH2) | 5.4 | 440
2 | CC[C@H](C)[C@H](NC(=O)[C@H](CCC(=O)O)NC(=O)C(C)(C)NC(=O)[C@@H](NC(=O)[C@H]1CCC[C@@H]1N)C(C)C)C(=O)N[C@@H](CCC(N)=O)C(=O)N[C@H]1CCC[C@@H]1C(=O)N[C@@H](CCSC)C(=O)N[C@@H](Cc1cnc[nH]1)C(=O)N[C@@H](CCC(N)=O)C(=O)N[C@@H](CCCCNC(=N)N)C(=O)N[C@@H](C)C(=O)N[C@@H](CCCCN)C(=O)N[C@H](CC(=O)N[C@@H](CC(C)C)C(=O)N[C@@H](CC(N)=O)C(=O)N[C@@H](CO)C(=O)N[C@@H](CCSC)CC(=O)N[C@@H](CCCNC(=N)N)C(=O)N[C@@H](CCCNC(=N)N)C(=O)N[C@H](C(=O)N[C@@H](CCC(=O)O)CC(=O)N[C@@H](Cc1c[nH]c2ccccc12)C(=O)N[C@@H](CC(C)C)C(=O)N[C@@H](CCCNC(=N)N)C(=O)N[C@@H](CCCCN)CC(=O)N[C@@H](CCCCN)C(=O)N[C@@H](CC(C)C)C(=O)N[C@@H](CCC(N)=O)C(=O)N[C@@H](CC(=O)O)CC(=O)N[C@H](C(=O)N[C@@H](Cc1cnc[nH]1)C(=O)N[C@@H](CC(N)=O)C(=O)N[C@H](CC(N)=O)Cc1ccccc1)C(C)C)C(C)C)Cc1c[nH]c2ccccc12 ({ACPC(1S,2S)}-V[Aib]EIQ[X1]MHQ[hArg]AK[β3hW]LNS[β3hM]RRV[β3hE]WLR[β3hK]KLQ[β3hD]VHN[β3hF]-NH2) | 10 | 830
3 | CSCC[C@H](NC(=O)[C@H](CO)NC(=O)[C@H](CC(N)=O)NC(=O)[C@H](CC(C)C)NC(=O)[C@H](Cc1c[nH]c2ccccc12)NC(=O)[C@H](CCCCN)NC(=O)[C@H](C)NC(=O)[C@H](CCCCNC(=N)N)NC(=O)[C@H](CCC(N)=O)NC(=O)[C@H](Cc1cnc[nH]1)NC(=O)[C@H](CCSC)NC(=O)[C@H]1CCC[C@@H]1NC(=O)[C@H](CCC(N)=O)NC(=O)[C@H]1CCC[C@@H]1NC(=O)[C@H](CCC(=O)O)NC(=O)C(C)(C)NC(=O)[C@@H](NC(=O)[C@H]1CCC[C@@H]1N)C(C)C)C(=O)N[C@@H](CCCNC(=N)N)C(=O)N[C@@H](CCCNC(=N)N)C(=O)N[C@H](C(=O)N[C@@H](CCC(=O)O)C(=O)N[C@@H](Cc1c[nH]c2ccccc12)C(=O)N[C@@H](CC(C)C)C(=O)N[C@@H](CCCNC(=N)N)C(=O)N[C@@H](CCCCN)C(=O)N[C@@H](CCCCN)C(=O)N[C@@H](CC(C)C)C(=O)N[C@@H](CCC(N)=O)C(=O)N[C@@H](CC(=O)O)C(=O)N[C@H](C(=O)N[C@@H](Cc1cnc[nH]1)C(=O)N[C@@H](CC(N)=O)C(=O)N[C@@H](Cc1ccccc1)C(N)=O)C(C)C)C(C)C ({ACPC(1S,2S)}-V[Aib]E[X1]Q[X1]MHQ[hArg]AKWLNSMRRVEWLRKKLQDVHNF-NH2) | 4.9 | 400
4 | CC[C@H](C)[C@H](NC(=O)[C@H](CCC(=O)O)NC(=O)C(C)(C)NC(=O)[C@@H](NC(=O)[C@H]1CCC[C@@H]1N)C(C)C)C(=O)N[C@@H](CCC(N)=O)C(=O)N[C@H]1CCC[C@@H]1C(=O)N[C@@H](CCSC)C(=O)N[C@@H](Cc1cnc[nH]1)C(=O)N[C@@H](CCC(N)=O)C(=O)N[C@@H](CCCCNC(=N)N)C(=O)N[C@@H](C)C(=O)N[C@@H](CCCCN)C(=O)N[C@H]1CCC[C@@H]1C(=O)N[C@@H](CC(C)C)C(=O)N[C@@H](CC(N)=O)C(=O)N[C@@H](CO)C(=O)N[C@H]1CCC[C@@H]1C(=O)N[C@@H](CCCNC(=N)N)C(=O)N[C@@H](CCCNC(=N)N)C(=O)N[C@H](C(=O)N[C@H]1CNC[C@@H]1C(=O)N[C@@H](Cc1c[nH]c2ccccc12)C(=O)N[C@@H](CC(C)C)C(=O)N[C@@H](CCCNC(=N)N)C(=O)N[C@H]1CNC[C@@H]1C(=O)N[C@@H](CCCCN)C(=O)N[C@@H](CC(C)C)C(=O)N[C@@H](CCC(N)=O)C(=O)N[C@H]1CCC[C@@H]1C(=O)N[C@H](C(=O)N[C@@H](Cc1cnc[nH]1)C(=O)N[C@@H](CC(N)=O)C(=O)N[C@H]1CCC[C@@H]1C(N)=O)C(C)C)C(C)C ({ACPC(1S,2S)}-V[Aib]EIQ[X1]MHQ[hArg]AK[X1]LNS[X1]RRV[X2]WLR[X2]KLQ[X1]VHN-{NH(1S,2S-2-CONH2-cPent)}) | 22 | 1800
5 | CSCC[C@@H](CC(=O)N[C@@H](CCC(=O)O)C(=O)N[C@@H](CCCNC(=N)N)C(=O)N[C@H](C(=O)N[C@@H](CCC(=O)O)CC(=O)N[C@@H](Cc1c[nH]c2ccccc12)C(=O)N[C@@H](CC(C)C)C(=O)N[C@@H](CCCNC(=N)N)C(=O)N[C@@H](CCCCN)CC(=O)N[C@@H](CCCCN)C(=O)N[C@@H](CC(C)C)C(=O)N[C@@H](CCC(N)=O)C(=O)N[C@@H](CC(=O)O)CC(=O)N[C@H](C(=O)N[C@@H](Cc1cnc[nH]1)C(=O)N[C@@H](CC(N)=O)C(=O)N[C@H](CC(N)=O)Cc1ccccc1)C(C)C)C(C)C)NC(=O)[C@H](CO)NC(=O)[C@H](CC(N)=O)NC(=O)[C@H](CC(C)C)NC(=O)C[C@H](Cc1c[nH]c2ccccc12)NC(=O)[C@H](CCCCN)NC(=O)CNC(=O)[C@H](CC(C)C)NC(=O)[C@H](CC(N)=O)NC(=O)[C@H](Cc1cnc[nH]1)NC(=O)[C@H](CCSC)NC(=O)[C@H]1CCC[C@@H]1NC(=O)[C@H](CCC(N)=O)NC(=O)[C@H]1CCC[C@@H]1NC(=O)[C@H](CCC(=O)O)NC(=O)[C@H](CO)NC(=O)[C@@H](NC(=O)[C@H]1CCC[C@@H]1N)C(C)C ({ACPC(1S,2S)}-VSE[X1]Q[X1]MHNLGK[β3hW]LNS[β3hM]ERV[β3hE]WLR[β3hK]KLQ[β3hD]VHN[β3hF]-NH2) | 2050 | 167000
6 | CC[C@H](C)[C@H](NC(=O)[C@H](CCC(=O)O)NC(=O)[C@H](C)NC(=O)[C@@H](NC(=O)[C@H](C)N)C(C)C)C(=O)N[C@@H](CCC(N)=O)C(=O)N[C@@H](CC(C)C)C(=O)N[C@@H](CCSC)C(=O)N[C@@H](Cc1cnc[nH]1)C(=O)N[C@@H](CCC(N)=O)C(=O)N[C@@H](CCCCNC(=N)N)C(=O)N[C@@H](C)C(=O)N[C@@H](CCCCN)C(=O)N[C@H]1CCC[C@@H]1C(=O)N[C@@H](CC(C)C)C(=O)N[C@@H](CC(N)=O)C(=O)N[C@@H](CO)C(=O)N[C@H]1CCC[C@@H]1C(=O)N[C@@H](CCCNC(=N)N)C(=O)N[C@@H](CCCNC(=N)N)C(=O)N[C@H](C(=O)N[C@H]1CNC[C@@H]1C(=O)N[C@@H](Cc1c[nH]c2ccccc12)C(=O)N[C@@H](CC(C)C)C(=O)N[C@@H](CCCNC(=N)N)C(=O)N[C@H]1CNC[C@@H]1C(=O)N[C@@H](CCCCN)C(=O)N[C@@H](CC(C)C)C(=O)N[C@@H](CCC(N)=O)C(=O)N[C@H]1CCC[C@@H]1C(=O)N[C@H](C(=O)N[C@@H](Cc1cnc[nH]1)C(=O)N[C@@H](CC(N)=O)C(=O)N[C@H]1CCC[C@@H]1C(N)=O)C(C)C)C(C)C (H-AVAEIQLMHQ[hArg]AK[X1]LNS[X1]RRV[X2]WLR[X2]KLQ[X1]VHN-{NH(1S,2S-2-CONH2-cPent)}) | 6.3 | 510
7 | CC[C@H](C)[C@H](NC(=O)[C@H](CCC(=O)O)NC(=O)[C@H](CO)NC(=O)[C@@H](NC(=O)[C@H]1CCC[C@@H]1N)C(C)C)C(=O)N[C@@H](CCC(N)=O)C(=O)N[C@H]1CCC[C@@H]1C(=O)N[C@@H](CCSC)C(=O)N[C@@H](Cc1cnc[nH]1)C(=O)N[C@@H](CC(N)=O)C(=O)N[C@@H](CC(C)C)C(=O)NCC(=O)N[C@@H](CCCCN)C(=O)N[C@H](CC(=O)N[C@@H](CC(C)C)C(=O)N[C@@H](CC(N)=O)C(=O)N[C@@H](CO)C(=O)N[C@@H](CCSC)CC(=O)N[C@@H](CCC(=O)O)C(=O)N[C@@H](CCCNC(=N)N)C(=O)N[C@H](C(=O)N[C@@H](CCC(=O)O)CC(=O)N[C@@H](Cc1c[nH]c2ccccc12)C(=O)N[C@@H](CC(C)C)C(=O)N[C@@H](CCCNC(=N)N)C(=O)N[C@@H](CCCCN)CC(=O)N[C@@H](CCCCN)C(=O)N[C@@H](CC(C)C)C(=O)N[C@@H](CCC(N)=O)C(=O)N[C@@H](CC(=O)O)CC(=O)N[C@H](C(=O)N[C@@H](Cc1cnc[nH]1)C(=O)N[C@@H](CC(N)=O)C(=O)N[C@H](CC(N)=O)Cc1ccccc1)C(C)C)C(C)C)Cc1c[nH]c2ccccc12 ({ACPC(1S,2S)}-VSEIQ[X1]MHNLGK[β3hW]LNS[β3hM]ERV[β3hE]WLR[β3hK]KLQ[β3hD]VHN[β3hF]-NH2) | 22.6 | 1840
